Measurements from patent US20250115943A1, “SYSTEM AND METHOD FOR ANTIMICROBIAL SUSCEPTIBILITY TESTING” (priority 2023, published 2025).
Converted amounts (≈) assume the structure as drawn. Where two headings read alike, the source gives them in different places.

What was measured:
E. coli ATCC 25922 [1] = details: E. coli strain #25922 (ATCC); strain designation, not a BLAST readout; cited from earlier work
S. saprophyticus = details: cited from earlier work
E. coli strain #14 (CDC) [2] = details: strain designation, not a BLAST readout; cited from earlier work
[3] = test system: E. coli strain #551 (CDC); assay: microbe, parasite or virus in culture; details: Escherichia coli, read-out: BLAST MIC, E. coli resistant strain (CDC 551); […]10^8 CFUs/mL; cut-off 0.7; FIG. 11C
Excerpt: (§1) The disclosed technology, which is referred to as the CytoSPAR BLAST (Bacteria Labeling Antibiotic Susceptibility Test) system, is used to quantitatively assess bacterial minimal inhibitory concentration of antibiotics for in vitro susceptibility testing. Used as an aid in diagnosis for clinicians in determining potential treatment options for patients suspected of having a microbial infection, BLAST is intended to determine susceptibility of microorganisms to the listed antibiotics (or other antimicrobials) according to manufacturer's standards. The system is intended for use with clinical isolates from liquid culture and colonies grown on agar (solid medium) or directly from urine samples. […]
(§2) The test incorporates a non-canonical amino acid (ncAA) into newly produced proteins. […] The assay involves bacterial incorporation of the ncAA, a chemical reaction between a reactive group and a fluorophore-tagged ligand, and detection of the newly fluorescent-tagged bacteria using a fluorescent plate reader or functionally similar device. […]
(§3) Using the BLAST system, tests can be performed on isolates or direct urine samples. […] These antibiotics are arrayed with increasing concentrations in adjacent wells so that the bacterial response can be measured against each specific concentration. […]

E. coli strain #14 (CDC) [4] = assay: microbe, parasite or virus in culture; details: Escherichia coli, read-out: BLAST MIC
Excerpt: as §1, §2, §3

[5] = test system: E. coli strain #551 (CDC); details: strain designation, not a BLAST readout; cited from earlier work
E. coli ATCC 25922 [6] = assay: CytoSPAR BLAST antibiotic susceptibility test; type: cell-based; details: for S, I, R: susceptible, intermediate, resistant category; for MIC: Escherichia coli
Excerpt: (§4) The disclosed technology, which is referred to as the CytoSPAR BLAST (Bacteria Labeling Antibiotic Susceptibility Test) system, is used to quantitatively assess bacterial minimal inhibitory concentration of antibiotics for in vitro susceptibility testing. Used as an aid in diagnosis for clinicians in determining potential treatment options for patients suspected of having a microbial infection, BLAST is intended to determine susceptibility of microorganisms to the listed antibiotics (or other antimicrobials) according to manufacturer's standards. The system is intended for use with clinical isolates from liquid culture and colonies grown on agar (solid medium) or directly from urine samples. Certain implementations of BLAST determine antibiotic susceptibility for a wide range of bacteria obtained from various types of patient samples, including samples from individuals suffering from urinary tract infections. The disclosed technology includes a high-throughput assay that directly detects bacterial susceptibility to a library of frequently used antibiotics and covers both Gram-negative and Gram-positive bacteria.
(§5) The test incorporates a non-canonical amino acid (ncAA) into newly produced proteins. The incorporated ncAA includes a reactive group which allows a specific modification and detection of the living bacteria. The assay involves bacterial incorporation of the ncAA, a chemical reaction between a reactive group and a fluorophore-tagged ligand, and detection of the newly fluorescent-tagged bacteria using a fluorescent plate reader or functionally similar device. The ncAA is added to bacterial growth media and is incorporated into newly synthesized bacterial proteins. The reactive groups on the ncAA are not naturally found in bacteria and act as a specific reactive group for bacteria undergoing active protein synthesis. […] The entire process is performed in a microtiter filter plate for high-throughput scale-up. Alternatively, a normal 96-well plate can also be used in which case centrifugation is used to wash the plate instead of filtration.
(§6) In an example embodiment, bacterial samples are first diluted and incubated in acclimatization media. After treatment with one or more antimicrobials, the ncAA is added and is taken up by living bacteria during protein biosynthesis in a process called labeling. […] The Click-Chemistry reaction between the alkyne group of the ncAA and the azide group of the fluorophore-tagged ligand requires the presence of copper in the reduced state-copper (I). In other implementations, the functional groups of the click chemistry reaction can be changed so that the ncAA has the azide group and the dye has the alkyne group. […] Other reducing agents may be used in the BLAST assay, for example, aldoses (sugars) including glyceraldehyde, glucose, and ribose to replace sodium ascorbate. Likewise, alternate chelators may be used (e.g., histidine in place of BTTAA). In some implementations, metal-free click chemistry reactions are performed without using copper.
(§7) Using the BLAST system, tests can be performed on isolates or direct urine samples. Isolates may be from urine, blood, or other body fluids. Isolated bacteria may be either Gram-positive or Gram-negative. In an example implementation, living bacterial samples in acclimatization media (Buffer A) are distributed in a microtiter filter plate, wherein certain predetermined wells include antibiotics of interest at different concentrations. These antibiotics are arrayed with increasing concentrations in adjacent wells so that the bacterial response can be measured against each specific concentration. The response is measured quantitatively, and a value that corresponds to the ability of the bacteria to metabolize and grow is measured.

P. aeruginosa ATCC 27853 [7] = assay: CytoSPAR BLAST antibiotic susceptibility test; type: cell-based; details: for S, I, R: susceptible, intermediate, resistant category
Excerpt: as §4, §5, §6, §7

S. aureus ATCC 29213 [8] = assay: CytoSPAR BLAST antibiotic susceptibility test; type: cell-based; details: for S, I, R: susceptible, intermediate, resistant category; for MIC: Staphylococcus aureus
Excerpt: as §4, §5, §6, §7

E. coli = details: cited from earlier work
[9] = test system: E. coli, S. saprophyticus and S. aureus; details: for E. coli, S. saprophyticus and S. aureus as reported by the FDA and CLSI (Table 5); cited from earlier work
S. aureus ATCC 29213 [10] = details: CLSI M100-Ed34E, cited from earlier work
P. mirabilis LSI 4933 [11] = assay: reference broth microdilution (rBMD); type: cell-based; details: Proteus mirabilis, LSI4933
Procedure: (§8) Following optimization of the BLAST assay, two other tests were performed in which 12 antibiotics (covering different classes) and 8 bacterial strains (Gram-positive and Gram-negative) were assayed using the same method as described above. Different bacterial strains were tested against different antibiotics and for each pair tested, the BLAST MIC value was compared to the CLSI QC range where available, or to the reference broth microdilution (rBMD) MIC which was determined in parallel with the BLAST assay following the CLSI protocols (see references [9]).

K. pneumoniae LSI CT1045 [12] = assay: reference broth microdilution (rBMD); type: cell-based; details: Klebsiella pneumoniae, LSICT1045
Procedure: as §8

K. pneumoniae LSI 4552 [13] = assay: reference broth microdilution (rBMD); type: cell-based; details: Klebsiella pneumoniae, LSI4552
Procedure: as §8

E. coli ATCC 25922 [14] = assay: reference broth microdilution (rBMD); type: cell-based; details: Escherichia coli, ATCC25922, Table 7, geometric mean MIC rounded to nearest 2-fold dilution, n = 3
Procedure: as §8
The inoculated urine cultures were incubated overnight at 35+2° C. Each urine culture was centrifuged, and the sediment used to prepare the BLAST inoculum of 5.0×10^5 CFU/mL to start the assay as described in the protocols section. […] The spiked urine samples were tested in parallel with isolates and the resultant BLAST MIC values were compared. In addition to the BLAST test, all the samples were also tested using the reference broth microdilution (rBMD) method and the MIC values were compared.

P. aeruginosa ATCC 27853 [15] = details: CLSI M100-Ed34E; cited from earlier work
E. coli LSI 770 = assay: CytoSPAR BLAST antibiotic susceptibility test; type: cell-based; details: E. coli LSI 770; for MIC: Escherichia coli, LSI770
Excerpt: as §4, §5, §6, §7

P. mirabilis LSI 4933 [16] = assay: CytoSPAR BLAST antibiotic susceptibility test; type: cell-based
Excerpt: as §4, §5, §6, §7

K. pneumoniae LSI CT1045 [17] = assay: CytoSPAR BLAST antibiotic susceptibility test; type: cell-based
Excerpt: as §4, §5, §6, §7

P. mirabilis LSI 4698 = assay: CytoSPAR BLAST antibiotic susceptibility test; type: cell-based
Excerpt: as §4, §5, §6, §7

K. pneumoniae LSI 4552 [18] = assay: CytoSPAR BLAST antibiotic susceptibility test; type: cell-based
Excerpt: as §4, §5, §6, §7

[19] = susceptible, intermediate, resistant category

O=C1CN(/N=C/c2ccc([N+](=O)[O-])o2)C(=O)N1 [Nitrofurantoin, nitrofurantoin]
susceptibility of the strain as listed (E. coli ATCC 25922 [1]): Susceptible
CLSI breakpoint I (S. saprophyticus; intermediate): 64 µg/mL
FDA breakpoint I (S. saprophyticus; intermediate): 64 µg/mL
CLSI breakpoint S (S. saprophyticus; susceptible): 32 µg/mL
FDA breakpoint S (S. saprophyticus; susceptible): 32 µg/mL
susceptibility of the strain as listed (E. coli strain #14 (CDC) [2]): Intermediate resistance
MIC [3]: 32 µg/mL (≈ 134 µM)
MIC (E. coli strain #14 (CDC) [4]): 32 µg/mL (≈ 134 µM)
susceptibility of the strain as listed [5]: Resistant
S, I, R (E. coli ATCC 25922 [6]): Susceptible
S, I, R (P. aeruginosa ATCC 27853 [7]): Resistant
S, I, R (S. aureus ATCC 29213 [8]; S. aureus ATCC 29213): Susceptible
MIC (S. aureus ATCC 29213 [8]; ATCC29213, S. aureus ATCC 29213, 5×10^5 CFUs/mL, FIG. 15, read-out: BLAST MIC): 4 µg/mL (≈ 16.8 µM)
MIC (S. aureus ATCC 29213 [8]; ATCC29213, Table 6, S. aureus ATCC 29213, optimized BLAST, cutoff 0.8, read-out: MIC BLAST): 4 µg/mL (≈ 16.8 µM)
CLSI breakpoint I (E. coli; intermediate): 64 µg/mL
FDA breakpoint I (E. coli; intermediate): 64 µg/mL
CLSI breakpoint S (E. coli; susceptible): 32 µg/mL
FDA breakpoint S (E. coli; susceptible): 32 µg/mL
CLSI QC range [9]: 4 to 16 µg/mL

C[C@H]1COc2c(N3CCN(C)CC3)c(F)cc3c(=O)c(C(=O)O)cn1c23 [Levofloxacin, levofloxacin]
MIC CLSI QC Range (S. aureus ATCC 29213 [10]; listed as levofloxacin): 0.063 to 0.5 µg/mL
MIC CLSI QC Range (S. aureus ATCC 29213 [10]): 0.06 to 0.5 µg/mL
MIC (P. mirabilis LSI 4933 [11]): 1 µg/mL (≈ 2.77 µM)
MIC (K. pneumoniae LSI CT1045 [12]): 128 µg/mL (≈ 354 µM)
MIC (K. pneumoniae LSI 4552 [13]): 0.12 µg/mL (≈ 0.332 µM)
MIC (E. coli ATCC 25922 [14]): 0.02 µg/mL (≈ 0.0553 µM)
MIC CLSI QC Range (P. aeruginosa ATCC 27853 [15]): 0.5 to 4.0 µg/mL
S, I, R (E. coli LSI 770; [19]): Resistant
MIC (E. coli LSI 770; Table 7, read-out: MIC BLAST): 36 µg/mL (≈ 99.6 µM)
MIC (E. coli LSI 770; Table 8, isolates, 5 × 10^5 CFU/mL, read-out: MIC BLAST Isolates): 35.6 µg/mL (≈ 98.5 µM)
MIC (E. coli LSI 770; Table 8, spiked urine sample, 5 × 10^5 CFU/mL, read-out: MIC BLAST Spiked Urine): 35.6 µg/mL (≈ 98.5 µM)
MIC (E. coli ATCC 25922 [6]; ATCC25922, Table 7, read-out: MIC BLAST): 0.01 µg/mL (≈ 0.0277 µM)
MIC (E. coli ATCC 25922 [6]; ATCC25922, read-out: MIC BLAST Isolates, Table 8, isolates, 5 × 10^5 CFU/mL): 0.01 µg/mL (≈ 0.0277 µM)
MIC (E. coli ATCC 25922 [6]; ATCC25922, read-out: MIC BLAST Spiked Urine, Table 8, spiked urine sample, 5 × 10^5 CFU/mL): 0.01 µg/mL (≈ 0.0277 µM)
S, I, R (E. coli ATCC 25922 [6]): Susceptible
MIC (P. aeruginosa ATCC 27853 [7]; Pseudomonas aeruginosa, ATCC27853, Table 6, optimized BLAST): 8 µg/mL (≈ 22.1 µM)
S, I, R (P. aeruginosa ATCC 27853 [7]): Susceptible
MIC (P. mirabilis LSI 4933 [16]; Proteus mirabilis, LSI4933, Table 7): 1.1 µg/mL (≈ 3.04 µM)
S, I, R (P. mirabilis LSI 4933 [16]; [19]): Susceptible
MIC (K. pneumoniae LSI CT1045 [17]; Klebsiella pneumoniae, LSICT1045, Table 7): > 71 µg/mL
S, I, R (K. pneumoniae LSI CT1045 [17]; [19]): Resistant
MIC (P. mirabilis LSI 4698; Proteus mirabilis, LSI4698, Table 7): 8.9 µg/mL (≈ 24.6 µM)
S, I, R (P. mirabilis LSI 4698; [19]): Susceptible
MIC (K. pneumoniae LSI 4552 [18]; Klebsiella pneumoniae, LSI4552, Table 7): 0.06 µg/mL (≈ 0.166 µM)
S, I, R (K. pneumoniae LSI 4552 [18]; [19]): Susceptible
S, I, R (S. aureus ATCC 29213 [8]; S. aureus ATCC 29213): Susceptible
MIC (S. aureus ATCC 29213 [8]; ATCC29213, S. aureus ATCC 29213, 5×10^6 CFUs/mL, cutoff 0.8, FIGS. 19-21, read-out: BLAST MIC): 0.125 µg/mL (≈ 0.346 µM)
MIC (S. aureus ATCC 29213 [8]; ATCC29213, Table 7, S. aureus ATCC 29213, read-out: MIC BLAST): 0.28 µg/mL (≈ 0.775 µM)
MIC (S. aureus ATCC 29213 [8]; ATCC29213, Table 8, S. aureus ATCC 29213, isolates, 5 × 10^5 CFU/mL, read-out: MIC BLAST Isolates): 0.28 µg/mL (≈ 0.775 µM)
MIC (S. aureus ATCC 29213 [8]; ATCC29213, Table 8, S. aureus ATCC 29213, spiked urine sample, 5 × 10^5 CFU/mL, read-out: MIC BLAST Spiked Urine): 0.28 µg/mL (≈ 0.775 µM)
breakpoint (E. coli; stated with the CLSI QC range in FIG. 22 legend): 0.5 µg/mL
